Here are results for one substance from US20230346827A1 (priority 2020, published 2023).

The test system of the data set is human primary cells. In words: BioMAP Diversity PLUS panel (12 human primary cell-based systems). The method, then: Four concentrations of LMW-DS (ILB®, Tikomed AB, Viken, Sweden, WO 2016/076780; 150 nM, 440 nM, 1.3 µM, 4 µM) were investigated in the BioMAP® Diversity PLUS panel by Eurofins.
Human primary cells in BioMAP systems are used at early passage (passage 4 or earlier) to minimize adaptation to cell culture conditions and preserve physiological signaling responses. All cells are from a pool of multiple donors (n = 2 - 6), commercially purchased and handled according to the recommendations of the manufacturers. Human blood derived CD14+ monocytes are differentiated into macrophages in vitro before being added to the Mphg system. Abbreviations are used as follows: Human umbilical vein endothelial cells (HUVEC), Peripheral blood mononuclear cells (PBMC), Human neonatal dermal fibroblasts (HDFn), B cell receptor (BCR), T cell receptor (TCR) and Toll-like receptor (TLR).
Cell types and stimuli used in each system are as follows: 3C system [HUVEC + (IL-1β, TNFα and IFNy)], 4H system [HUVEC + (IL-4 and histamine)], LPS system [PBMC and HUVEC + LPS (TLR4 ligand)], SAg system [PBMC and HUVEC + TCR ligands], BT system [CD19+ B cells and PBMC + (α-IgM and TCR ligands)], BF4T system [bronchial epithelial cells and HDFn + (TNFα and IL-4)], BE3C system [bronchial epithelial cells + (IL-1β, TNFα and IFNy)], CASM3C system [coronary artery smooth muscle cells + (IL-1 β, TNFα and IFNy)], HDF3CGF system [HDFn + (IL-1β, TNFα, IFNy, EGF, bFGF and PDGF-BB)], KF3CT system [keratinocytes and HDFn + (IL-1β, TNFα, IFNy and TGFβ)], MyoF system [differentiated lung myofibroblasts + (TNFα and TGFβ)] and Mphg system [HUVEC and M1 macrophages + Zymosan (TLR2 ligand)].
Systems are derived from either single cell types or co-culture systems. Adherent cell types are cultured in 96 or 384-well plates until confluence, followed by the addition of PBMC (SAg and LPS systems). The BT system consists of CD19+ B cells co-cultured with PBMC and stimulated with a BCR activator and low levels of TCR stimulation. […] Each plate contains drug controls (e.g., legacy control test agent colchicine at 1.1 µM), negative controls (e.g., non-stimulated conditions) and vehicle controls (e.g., 0.1% DMSO) appropriate for each system. Direct ELISA is used to measure biomarker levels of cell-associated and cell membrane targets. Soluble factors from supernatants are quantified using either HTRF® detection, bead-based multiplex immunoassay or capture ELISA. Overt adverse effects of test agents on cell proliferation and viability (cytotoxicity) are detected by sulforhodamine B (SRB) staining, for adherent cells, and alamarBlue® reduction for cells in suspension. For proliferation assays, individual cell types are cultured at subconfluence and measured at time points optimized for each system (48-hrs: 3C and CASM3C systems; 72-hrs: BT and HDF3CGF systems; 96-hrs: SAg system). Cytotoxicity for adherent cells is measured by SRB (24-hrs: 3C, 4H, LPS, SAg, BF4T, BE3C, CASM3C, HDF3CGF, KF3CT, and Mphg systems; 48-hrs: MyoF system), and by alamarBlue staining for cells in suspension (24-hrs: SAg system; 42-hrs: BT system) at the time points indicated.
Biomarker measurements in a test agent-treated sample are divided by the average of control samples (at least 6 vehicle controls from the same plate) to generate a ratio that is then log10 transformed. Significance prediction envelopes are calculated using historical vehicle control data at a 95% confidence interval.
Biomarker activities are annotated when 2 or more consecutive concentrations change in the same direction relative to vehicle controls, are outside of the significance envelope and have at least one concentration with an effect size > 20% (|log10 ratio| > 0.1). Biomarker key activities are described as modulated if these activities increase in some systems, but decrease in others. […]

Regarding sodium salt of dextran sulfate [LMW-DS], the annotated readouts (150 nM, 440 nM, 1.3 µM, 4 µM) stood at 25. Where the note is “at the concentrations tested (150 nM - 4 µM)”, the “cytotoxicity for human primary cells” value is reported as “not cytotoxic”. Also, the “thrombomodulin (TM)” value (hemostasis-related activity) is listed as “increased”. Besides, for the setting “immunomodulatory activity”, the CD69 entry is listed as “increased”, the M-CSF result is on record as “decreased”, the “secreted immunoglobulin G (sIgG)” value is “decreased” and the “soluble IL-17A (sIL-17A)” value is on record as “increased”. Moreover, under “inflammation-related activity”, the “Eotaxin 3 (Eot3)” value is reported as “increased”, the I-TAC entry is listed as “decreased”, the IL-8 result is “increased” and the IP-10 result was “decreased”. For the same substance, for the setting “inflammation-related activity”, the MCP-1 entry was “decreased”, the MIG entry is reported as “decreased”, the VCAM-1 result is reported as “decreased” and the sTNFα entry is “decreased”. Also, where the note is “tissue remodeling activity”, the EGFR entry is recorded as “increased”, the MMP-1 entry is “increased”, the PAI-1 entry is “increased” and the uPAR entry is listed as “increased”. Besides, the “antiproliferative effect on human primary endothelial cells” value (top concentration only (4 µM)) is “modestly and selectively antiproliferative”.
